Reference: PMC10547636 (Pharmaceutical Research, 2023)

Legend:
[1] = Population pharmacokinetic analysis (NONMEM) of intravenous PCM and its metabolites in plasma and urine of preterm neonates born below 32 weeks of gestation; assay type: in vivo; settings: for fVG / fVS / fVO, distribution volume of metabolite as fraction of VP of PCM: V = fV×VP
Experimental: Two datasets were pooled in this study. […] The second dataset consisted of data from 83 neonates born before 32 weeks of gestation who were included in the Drug dosage Improvement in Neonates (DINO) study between September 2014 and July 2017. This study was conducted in four Dutch Neonatal Intensive Care Units. The Erasmus Medical Center ethics review board approved the protocols, and written informed consent from parents/legal guardians was obtained before study initiation (NL47409.078.14, MEC-2014-067, NCT02421068). […] The actual urine collection interval and volume varied and were recorded. Plasma samples of all patients were available. […] In dataset 2, the dosing schedule was based on current weight according to Wang et al. […] The dosing regimen could be adapted in individual patients by the treating physician. […] No urine samples were collected. […] For those BLOQ samples, the values obtained with the assay were still reported and these were used in the PopPK analysis. […] Processing and visualization of output from NONMEM were performed in R 4.2.3 (CRAN.R-project.org). Parameters were estimated using the first-order conditional estimation with interaction (FOCE + I) method. […] Parameter precision was obtained with the R covariance matrix. […] The stochastic model included interindividual variability (IIV) and residual variability (RUV). […] SD assumes that the standard deviation of the residual error is the sum of the additive and proportional components. Separate SD1 and SD2 values were tested for each dataset, compound and for plasma and urine samples. […] In those cases, linear interpolation was used for current weight between two existing current weight measurements of the particular patient. For implementation of continuous covariates (birthweight, current weight, GA, PNA, PMA, birthweight Z-score), linear, power, exponential, and sigmoidal functions were tested. For categorical covariates (gender, SGA), additive shift models were tested. Covariates were evaluated based on OFV by a stepwise forward inclusion (ΔOFV > 6.64, P < 0.01) and backward deletion (ΔOFV < 10.83, P > 0.001) process. Besides this, goodness of fit plots split for datasets and covariate quartiles, plots of individual eta-values versus covariate values (ETA plots), and reduction in inter-individual variability on the parameter of interest, were evaluated. A bootstrap analysis (n = 500) stratified on dataset, was performed to assess the robustness of the final model and parameter estimates. […] The NPDEs of urine samples were plotted together due to a limited number of samples per compound. […] This was done to illustrate the concentration-time profiles of each compound under the current practice of linear bodyweight-based dosing. […] In these simulations, the growth curves published by Anchieta et al.

[2] = adults; ref [3], [4]; cited from earlier work

Row | SMILES | fVG / fVS / fVO, distribution volume of metabolite as fraction of VP of PCM ([1]; final model estimate (RSE %)) | fVG / fVS / fVO, distribution volume of metabolite as fraction of VP of PCM, bootstrap ([1]; bootstrap estimate (95% CI)) | TVCLrG / TVCLrS / TVCLrO, typical renal clearance of metabolite, bootstrap ([1]; birthweight 985 g, PNA 5 days, bootstrap estimate (95% CI)) | TVCLrG / TVCLrS / TVCLrO, typical renal clearance of metabolite ([1]; birthweight 985 g, PNA 5 days, final model estimate (RSE %)) | θPNA50, PNA at which RFS reaches half of RFS0, bootstrap ([1]; PNA in days, bootstrap estimate (95% CI)) | θPNA50, PNA at which RFS reaches half of RFS0 ([1]; PNA in days, final model estimate (RSE %)) | non-linear formation of CYP2E1 pathway metabolites (PCM-cysteine and PCM-mercapturate) ([1]; among the dosages given in this study) | predicted difference in glucuronidation of PCM with PNA ([1]; between day 1 and day 30) | θBWb, power exponent of birthweight (BWb/985) on RFG, bootstrap ([1]; bootstrap estimate (95% CI)) | θBWc, power exponent of current weight (BWc/1012) on VP, bootstrap ([1]; bootstrap estimate (95% CI)) | VPP, distribution volume of the peripheral compartment, bootstrap ([1]; bootstrap estimate (95% CI), in L) | TVVP, typical distribution volume of the central compartment (VP), bootstrap ([1]; current weight 1012 g, bootstrap estimate (95% CI)) | TVVP, typical distribution volume of the central compartment (VP) ([1]; current weight 1012 g, final model estimate (RSE %)) | θBWb, power exponent of birthweight (BWb/985) on RFG ([1]; final model estimate (RSE %)) | θBWc, power exponent of current weight (BWc/1012) on VP ([1]; final model estimate (RSE %)) | VPP, distribution volume of the peripheral compartment ([1]; final model estimate (RSE %), in L) | contribution of glucuronidation to elimination in neonates ([1]; preterm neonates of this study) | fraction of PCM metabolized into sulphate conjugate [2] [%] | fraction of administered PCM excreted unchanged in the urine [2] | fraction of administered dose metabolized via the oxidative route (NAPQI) [2]
1 | CC(=O)Nc1ccc(OS(=O)(=O)O)cc1 [PCM-sulfate, paracetamol-sulfate] | 0.326 (4) | 0.330 (0.300–0.417) | – | – | – | – | – | – | – | – | – | – | – | – | – | – | – | – | – | –
2 | CC(=O)Nc1ccc(O[C@@H]2O[C@H](C(=O)O)[C@@H](O)[C@H](O)[C@H]2O)cc1 [PCM-glucuronide, paracetamol-glucuronide] | 0.6 (9) | 0.6 (0.5–0.8) | 0.0428 (0.0383–0.0482) L/h | 0.0425 (5) L/h | – | – | – | – | – | – | – | – | – | – | – | – | – | – | – | –
3 | CC(=O)Nc1ccc(O)cc1 [PCM, paracetamol] | – | – | – | – | 8.71 (4.55–15.6) | 9.18 (23) | could not identify this non-linearity | sixfold | 0.487 (0.137–0.917) | 0.844 (0.659–1.05) | 0.247 (0.167–0.348) | 0.955 (0.775–1.030) L | 0.955 (3) L | 0.479 (45) | 0.836 (11) | 0.244 (12) | 5–15% | ~30 | 2–5% | 8–10%
